Measured values published in the supplement of paper PMC10307832.

Assays:
Assay in all cases: relative viability (nuclei count vs DMSO), 5 days (fraction); higher = more cells survive
[1] = compound: C#Cc1cccc(Nc2ncnc3cc(OCCOC)c(OCCOC)cc23)c1 [Erlotinib] + Cc1cc(Nc2cc(N3CCN(C)CC3)nc(Sc3ccc(NC(=O)C4CC4)cc3)n2)n[nH]1 [Tozasertib] (partner 0.1 µM)
Outline: (§1)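 Lung cancer cell lines, seeded in 1536-well plates, were treated the following day by pin tool with a single drug or with five library-drug doses (not always all listed) in √10 steps on top of a fixed anchor-drug dose. Cells were fixed and nuclei stained in one step after 5 days, and nuclei were counted. Relative viability is the nuclei count for treated wells divided by that for vehicle wells, reported as medians of duplicate plates.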

[2] = compound: C#Cc1cccc(Nc2ncnc3cc(OCCOC)c(OCCOC)cc23)c1 [Erlotinib] + N=C(N)NC(=N)NCCc1ccccc1 [Phenformin] (partner 250 µM)
Outline: as §1

[3] = compound: C#Cc1cccc(Nc2ncnc3cc(OCCOC)c(OCCOC)cc23)c1 [Erlotinib] + O=C(c1cc(Cc2n[nH]c(=O)c3ccccc23)ccc1F)N1CCN(C(=O)C2CC2)CC1 [Olaparib] (partner 8 µM)
Outline: as §1

[4] = compound: O=C(Nc1c[nH]nc1-c1nc2ccc(CN3CCOCC3)cc2[nH]1)NC1CC1 [AT9283] + COc1cccc2cc(-c3nc([C@H]4CC[C@H](C(=O)O)CC4)n4ncnc(N)c34)[nH]c12 [OSI-027] (partner 0.5 µM)
Outline: as §1

[5] = compound: O=C(Nc1c[nH]nc1-c1nc2ccc(CN3CCOCC3)cc2[nH]1)NC1CC1 [AT9283] + C[C@]1(O)C[C@@H](c2nc(-c3ccc4ccc(-c5ccccc5)nc4c3)c3c(N)nccn32)C1 [Linsitinib] (partner 1 µM)
Outline: as §1

In the case of NCI-H441, the relative viability ([1]; first compound 0.02 µM) is reported as 0.631, the relative viability ([1]; first compound 0.2 µM) is reported as 0.717 and the relative viability ([1]; first compound 0.6325 µM) is reported as 0.574. It also gave a relative viability ([1]; first compound 2 µM) of 0.473, a relative viability ([2]; first compound 0.02 µM) of 0.883 and a relative viability ([2]; first compound 0.2 µM) of 0.863. It also gave a relative viability ([2]; first compound 0.6325 µM) of 0.892, a relative viability ([3]; first compound 0.02 µM) of 0.626 and a relative viability ([3]; first compound 0.2 µM) of 0.54. The relative viability ([3]; first compound 0.6325 µM) was 0.534, the relative viability ([3]; first compound 2 µM) was 0.495 and the relative viability ([4]; first compound 0.003 µM) was 0.532. The relative viability ([4]; first compound 0.03 µM) was 0.574, the relative viability ([4]; first compound 0.09487 µM) was 0.321 and the relative viability ([4]; first compound 0.3 µM) was 0.333. The relative viability ([5]; first compound 0.003 µM) was 0.535, the relative viability ([5]; first compound 0.03 µM) was 0.474 and the relative viability ([5]; first compound 0.09487 µM) was 0.142. It also gave a relative viability ([5]; first compound 0.3 µM) of 0.165.
